Source: US20220339143A1, “TAK-925 FOR USE IN TREATING NARCOLEPSY” (Takeda Pharmaceutical Company Limited, priority 2019, published 2022)

Test system: patients with narcolepsy type 1 (NT1)
Experiment: Subjective daytime sleepiness as assessed by Karolinska Sleepiness Scale (KSS), single dose (Cohorts 5, 6, 7)
Assay type: in vivo, human
Description: Daytime sleepiness as assessed by the Karolinska Sleepiness Scale (KSS).
Daytime sleepiness as assessed by KSS at predose and hourly until 11 hours after the start of infusion is presented in Table 13 as summary, in Table 14 as ANOVA and in Table 15 as ANOVA of change from baseline.

[1] = Cmpd A 5 mg (N = 6), 9 hr after start of infusion
[2] = Cmpd A 5 mg (N = 6), 10 hr after start of infusion
[3] = Cmpd A 5 mg (N = 6), 11 hr after start of infusion
[4] = Cmpd A 11.2 mg (N = 4), 1 hr after start of infusion
[5] = Cmpd A 11.2 mg (N = 4), 2 hr after start of infusion
[6] = Cmpd A 11.2 mg (N = 4), 3 hr after start of infusion
[7] = Cmpd A 11.2 mg (N = 4), 4 hr after start of infusion
[8] = Cmpd A 11.2 mg (N = 4), 5 hr after start of infusion
[9] = Cmpd A 11.2 mg (N = 4), 6 hr after start of infusion
[10] = Cmpd A 11.2 mg (N = 4), 7 hr after start of infusion
[11] = Cmpd A 11.2 mg (N = 4), 8 hr after start of infusion
[12] = Cmpd A 11.2 mg (N = 4), 9 hr after start of infusion
[13] = Cmpd A 11.2 mg (N = 4), 10 hr after start of infusion
[14] = Cmpd A 11.2 mg (N = 4), 11 hr after start of infusion
[15] = Cmpd A 44.8 mg (N = 4), 1 hr after start of infusion
[16] = Cmpd A 44.8 mg (N = 4), 2 hr after start of infusion
[17] = Cmpd A 44.8 mg (N = 4), 3 hr after start of infusion
[18] = Cmpd A 44.8 mg (N = 4), 4 hr after start of infusion
[19] = Cmpd A 44.8 mg (N = 4), 5 hr after start of infusion
[20] = Cmpd A 44.8 mg (N = 4), 6 hr after start of infusion
[21] = Cmpd A 44.8 mg (N = 4), 7 hr after start of infusion
[22] = Cmpd A 44.8 mg (N = 4), 8 hr after start of infusion
[23] = Cmpd A 44.8 mg (N = 4), 9 hr after start of infusion
[24] = Cmpd A 44.8 mg (N = 4), 10 hr after start of infusion
[25] = Cmpd A 44.8 mg (N = 4), 11 hr after start of infusion

## COC(=O)N1CCC[C@H](NS(C)(=O)=O)[C@@H]1CO[C@H]1CC[C@@H](c2ccccc2)CC1 [Compound A, methyl (2R,3S)-3-((methylsulfonyl)amino)-2-(((cis-4-phenylcyclohexyl)oxy)methyl)piperidine-1-carboxylate]
Cmpd A 5 mg (N = 6), 8 hr after start of infusion
  KSS Observed Value at Visit, Median: 3.0
[1]
  KSS Change from Baseline, Mean: −2.5
  KSS Change from Baseline, Median: −2.5
  KSS Observed Value at Visit, Mean: 2.5
  KSS Observed Value at Visit, Median: 2.5
[2]
  KSS Change from Baseline, Mean: −2.3
  KSS Change from Baseline, Median: −2.5
  KSS Observed Value at Visit, Mean: 2.7
  KSS Observed Value at Visit, Median: 2.0
[3]
  KSS Change from Baseline, Mean: −1.7
  KSS Change from Baseline, Median: −1.5
  KSS Observed Value at Visit, Mean: 3.3
  KSS Observed Value at Visit, Median: 3.0
[4]
  KSS Change from Baseline, Mean: −2.0
  KSS Change from Baseline, Median: −1.0
  KSS Observed Value at Visit, Mean: 1.8
  KSS Observed Value at Visit, Median: 1.5
[5]
  KSS Change from Baseline, Mean: −1.5
  KSS Change from Baseline, Median: −1.0
  KSS Observed Value at Visit, Mean: 2.3
  KSS Observed Value at Visit, Median: 2.0
[6]
  KSS Change from Baseline, Mean: −1.3
  KSS Change from Baseline, Median: −1.0
  KSS Observed Value at Visit, Mean: 2.5
  KSS Observed Value at Visit, Median: 3.0
[7]
  KSS Change from Baseline, Mean: −1.8
  KSS Change from Baseline, Median: −1.0
  KSS Observed Value at Visit, Mean: 2.0
  KSS Observed Value at Visit, Median: 2.0
[8]
  KSS Change from Baseline, Mean: −1.8
  KSS Change from Baseline, Median: −1.0
  KSS Observed Value at Visit, Mean: 2.0
  KSS Observed Value at Visit, Median: 2.0
[9]
  KSS Change from Baseline, Mean: −1.5
  KSS Change from Baseline, Median: −0.5
  KSS Observed Value at Visit, Mean: 2.3
  KSS Observed Value at Visit, Median: 2.0
[10]
  KSS Change from Baseline, Mean: −1.0
  KSS Change from Baseline, Median: −0.5
  KSS Observed Value at Visit, Mean: 2.8
  KSS Observed Value at Visit, Median: 3.0
[11]
  KSS Change from Baseline, Mean: −1.5
  KSS Change from Baseline, Median: −1.0
  KSS Observed Value at Visit, Mean: 2.3
  KSS Observed Value at Visit, Median: 2.5
[12]
  KSS Change from Baseline, Mean: −1.3
  KSS Change from Baseline, Median: −0.5
  KSS Observed Value at Visit, Mean: 2.5
  KSS Observed Value at Visit, Median: 2.5
[13]
  KSS Change from Baseline, Mean: 1.3
  KSS Change from Baseline, Median: 2.5
  KSS Observed Value at Visit, Mean: 5.0
  KSS Observed Value at Visit, Median: 5.5
[14]
  KSS Change from Baseline, Mean: 0.5
  KSS Change from Baseline, Median: 1.0
  KSS Observed Value at Visit, Mean: 4.3
  KSS Observed Value at Visit, Median: 4.0
[15]
  KSS Change from Baseline, Mean: −1.5
  KSS Change from Baseline, Median: −1.5
  KSS Observed Value at Visit, Mean: 1.3
  KSS Observed Value at Visit, Median: 1.0
[16]
  KSS Change from Baseline, Mean: −1.5
  KSS Change from Baseline, Median: −2.0
  KSS Observed Value at Visit, Mean: 1.3
  KSS Observed Value at Visit, Median: 1.0
[17]
  KSS Change from Baseline, Mean: −1.0
  KSS Change from Baseline, Median: −1.0
  KSS Observed Value at Visit, Mean: 1.8
  KSS Observed Value at Visit, Median: 1.5
[18]
  KSS Change from Baseline, Mean: −1.0
  KSS Change from Baseline, Median: −1.0
  KSS Observed Value at Visit, Mean: 1.8
  KSS Observed Value at Visit, Median: 1.5
[19]
  KSS Change from Baseline, Mean: −1.5
  KSS Change from Baseline, Median: −1.5
  KSS Observed Value at Visit, Mean: 1.3
  KSS Observed Value at Visit, Median: 1.0
[20]
  KSS Change from Baseline, Mean: −1.3
  KSS Change from Baseline, Median: −1.0
  KSS Observed Value at Visit, Mean: 1.5
  KSS Observed Value at Visit, Median: 1.5
[21]
  KSS Change from Baseline, Mean: −1.3
  KSS Change from Baseline, Median: −1.0
  KSS Observed Value at Visit, Mean: 1.5
  KSS Observed Value at Visit, Median: 1.5
[22]
  KSS Change from Baseline, Mean: −0.8
  KSS Change from Baseline, Median: −1.0
  KSS Observed Value at Visit, Mean: 2.0
  KSS Observed Value at Visit, Median: 2.0
[23]
  KSS Change from Baseline, Mean: −1.3
  KSS Change from Baseline, Median: −1.0
  KSS Observed Value at Visit, Mean: 1.5
  KSS Observed Value at Visit, Median: 1.0
[24]
  KSS Change from Baseline, Mean: −1.5
  KSS Change from Baseline, Median: −1.5
  KSS Observed Value at Visit, Mean: 1.3
  KSS Observed Value at Visit, Median: 1.0
[25]
  KSS Change from Baseline, Mean: −1.3
  KSS Change from Baseline, Median: −1.0
  KSS Observed Value at Visit, Mean: 1.5
  KSS Observed Value at Visit, Median: 1.5
All time points over 9 hour infusion period
  KSS ratings vs pooled placebo group: lower (greater alertness)
Single dose, NT1
  mean reduction in KSS from baseline vs placebo: greater for Compound A vs placebo
